Assay results: article PMC10967972, “Different Coactivator Recruitment to Human PPARα/δ/γ Ligand-Binding Domains by Eight PPAR Agonists to Treat Nonalcoholic Fatty Liver Disease” (Biomedicines, 2024)
Where two headings read alike, the source gives them in different places.

Tests used:
Assay type in all cases: biochemical
Settings in all cases: for EC50: Buffer A
human PPARδ-LBD = biological target: T1, human PPARδ-LBD (Homo sapiens, UniProt Q03181); assay: TR-FRET coactivator recruitment assay, PPARδ-LBD
T1 construct: PPARδ-LBD (AAs 170–441); made in house
T1 sequence (Q03181 170-441): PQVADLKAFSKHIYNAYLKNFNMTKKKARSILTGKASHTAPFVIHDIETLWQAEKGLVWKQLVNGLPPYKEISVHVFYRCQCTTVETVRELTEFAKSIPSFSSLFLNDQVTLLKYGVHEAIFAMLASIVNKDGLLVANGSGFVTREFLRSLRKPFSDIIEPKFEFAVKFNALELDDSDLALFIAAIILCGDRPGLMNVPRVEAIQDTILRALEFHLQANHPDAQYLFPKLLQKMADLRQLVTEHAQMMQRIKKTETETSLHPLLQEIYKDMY

human PPARα-LBD = biological target: T2, human PPARα-LBD (Homo sapiens, UniProt Q07869); assay: TR-FRET coactivator recruitment assay, PPARα-LBD
T2 construct: Human PPARα-LBD [amino acids (AAs) 200–468]; made in house
T2 sequence (Q07869 200-468): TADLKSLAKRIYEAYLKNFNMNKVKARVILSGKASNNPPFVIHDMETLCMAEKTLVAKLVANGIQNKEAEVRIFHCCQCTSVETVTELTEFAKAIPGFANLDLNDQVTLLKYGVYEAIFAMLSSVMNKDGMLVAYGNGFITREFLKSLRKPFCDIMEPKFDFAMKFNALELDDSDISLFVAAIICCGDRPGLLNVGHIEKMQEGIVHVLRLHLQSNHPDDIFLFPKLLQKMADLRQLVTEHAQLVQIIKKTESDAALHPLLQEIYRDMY

human PPARγ-LBD = biological target: T3, human PPARγ-LBD (Homo sapiens, UniProt P37231); assay: TR-FRET coactivator recruitment assay, PPARγ-LBD
T3 construct: PPARγ-LBD (AAs 203–477 in isoform 1); made in house
T3 sequence (P37231 203-477 isoform P37231-2): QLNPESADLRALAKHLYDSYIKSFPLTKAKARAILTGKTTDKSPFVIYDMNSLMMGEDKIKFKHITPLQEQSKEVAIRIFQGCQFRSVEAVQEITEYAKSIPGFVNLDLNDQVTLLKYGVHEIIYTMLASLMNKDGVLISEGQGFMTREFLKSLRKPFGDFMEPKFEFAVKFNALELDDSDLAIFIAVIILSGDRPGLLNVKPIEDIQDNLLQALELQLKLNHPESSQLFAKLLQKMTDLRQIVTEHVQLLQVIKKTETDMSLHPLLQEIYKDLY

[1] = evaluated based on EC50 values, PGC, PGC1α, SRC, SRC1, TRAP, TRAP220

O=C(O)CCCc1cc2cc(Cl)ccc2n1S(=O)(=O)c1ccc2ncsc2c1 [Lanifibranor, lanifibranor]
EC50 (human PPARδ-LBD; CBP peptide recruitment, read-out: PPARδ CBP EC50): 3.72 µM
EC50 (human PPARδ-LBD; PGC1α peptide recruitment, read-out: PPARδ PGC1α EC50): 2.46 µM
EC50 (human PPARδ-LBD; SRC1 peptide recruitment, read-out: PPARδ SRC1 EC50): 6.97 µM
EC50 (human PPARδ-LBD; TRAP220 peptide recruitment, read-out: PPARδ TRAP220 EC50): 4.41 µM
Approximate potency order in the recruitment of four coactivators, PPARδ (human PPARδ-LBD; [1]): PGC>CBP>TRAP>SRC
recruitment of coactivators to PPARδ-LBD (in words) (human PPARδ-LBD; four coactivator peptides): effective
Emax (human PPARδ-LBD; read-out: PPARδ CBP % of GW501516 max response): 101%
Emax (human PPARδ-LBD; read-out: PPARδ PGC1α % of GW501516 max response): 103%
Emax (human PPARδ-LBD; read-out: PPARδ SRC1 % of GW501516 max response): 57.5%
Emax (human PPARδ-LBD; read-out: PPARδ TRAP220 % of GW501516 max response): 86.5%
EC50 (human PPARα-LBD; CBP peptide recruitment, read-out: PPARα CBP EC50): 4.02 µM
EC50 (human PPARα-LBD; PGC1α peptide recruitment, read-out: PPARα PGC1α EC50): 9.95 µM
EC50 (human PPARα-LBD; SRC1 peptide recruitment, read-out: PPARα SRC1 EC50): 10.4 µM
EC50 (human PPARα-LBD; TRAP220 peptide recruitment, read-out: PPARα TRAP220 EC50): 7.31 µM
Approximate potency order in the recruitment of four coactivators, PPARα (human PPARα-LBD; [1]): CBP>TRAP>PGC=SRC
Emax (human PPARα-LBD; read-out: PPARα CBP % of GW7647 max response): 71.7%
Emax (human PPARα-LBD; read-out: PPARα PGC1α % of GW7647 max response): 41.8%
Emax (human PPARα-LBD; read-out: PPARα SRC1 % of GW7647 max response): 49.3%
Emax (human PPARα-LBD; read-out: PPARα TRAP220 % of GW7647 max response): 64.7%
EC50 (human PPARγ-LBD; CBP peptide recruitment, read-out: PPARγ CBP EC50): 2.64 µM
EC50 (human PPARγ-LBD; PGC1α peptide recruitment, read-out: PPARγ PGC1α EC50): 4.31 µM
EC50 (human PPARγ-LBD; SRC1 peptide recruitment, read-out: PPARγ SRC1 EC50): 7.69 µM
EC50 (human PPARγ-LBD; TRAP220 peptide recruitment, read-out: PPARγ TRAP220 EC50): 5.07 µM
Approximate potency order in the recruitment of four coactivators, PPARγ (human PPARγ-LBD; [1]): CBP>PGC>TRAP>SRC
Emax (human PPARγ-LBD; read-out: PPARγ CBP % of GW1929 max response): 83.3%
Emax (human PPARγ-LBD; read-out: PPARγ PGC1α % of GW1929 max response): 70.5%
Emax (human PPARγ-LBD; read-out: PPARγ SRC1 % of GW1929 max response): 46.1%
Emax (human PPARγ-LBD; read-out: PPARγ TRAP220 % of GW1929 max response): 60.4%
